Data published in ChEMBL document CHEMBL1158437, “The discovery of the potent aurora inhibitor MK-0457 (VX-680)” (Bioorg Med Chem Lett, 2009).
In brackets after ≈: the same amount, converted by molar mass. Activity calls are given as the source filed them. The rule behind the calls is not given here.

Experiments:
[1] = target: T1, Aurora kinase B (Homo sapiens, UniProt Q96GD4); test: Inhibition of Aurora-B
[2] = test system: COLO 205; test: Antiproliferative activity against human COLO205 cells by [3H]thymidine uptake assay; assay type: functional, cell-based; conditions: for Activity: TDE = time-dependent effect
[3] = Aqueous solubility at pH 7.4; assay type: physicochemical; conditions: buffer
[4] = target: T2, Aurora kinase A (Homo sapiens, UniProt O14965)
T2 sequence (O14965 whole entry): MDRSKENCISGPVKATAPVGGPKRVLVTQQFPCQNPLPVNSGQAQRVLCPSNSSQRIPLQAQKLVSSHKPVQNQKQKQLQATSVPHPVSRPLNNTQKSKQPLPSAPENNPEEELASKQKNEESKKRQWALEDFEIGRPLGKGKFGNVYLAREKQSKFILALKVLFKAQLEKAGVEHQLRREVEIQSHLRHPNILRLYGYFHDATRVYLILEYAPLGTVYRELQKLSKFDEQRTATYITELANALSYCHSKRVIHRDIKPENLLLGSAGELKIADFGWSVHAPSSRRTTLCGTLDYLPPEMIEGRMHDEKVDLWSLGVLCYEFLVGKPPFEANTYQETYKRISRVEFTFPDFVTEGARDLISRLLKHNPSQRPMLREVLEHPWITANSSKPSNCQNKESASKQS
Description: Inhibition of Aurora-A by coupled assay

[5] = Bioavailability in rat; assay type: ADME, organism-based; conditions: in vivo
[6] = Half life in rat; assay type: ADME, organism-based; conditions: in vivo
[7] = target: T3, Aurora kinase C (Homo sapiens, UniProt Q9UQB9); test: Inhibition of Aurora-C
T3 sequence (Q9UQB9 whole entry): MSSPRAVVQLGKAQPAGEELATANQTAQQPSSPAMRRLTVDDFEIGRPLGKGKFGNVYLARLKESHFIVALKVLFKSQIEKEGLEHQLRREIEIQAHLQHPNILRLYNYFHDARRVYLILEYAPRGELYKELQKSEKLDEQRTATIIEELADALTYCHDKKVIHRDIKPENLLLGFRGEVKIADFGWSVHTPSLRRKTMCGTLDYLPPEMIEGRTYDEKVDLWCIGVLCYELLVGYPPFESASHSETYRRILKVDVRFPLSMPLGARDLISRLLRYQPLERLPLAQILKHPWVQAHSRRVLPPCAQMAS

[8] = target: Proto-oncogene tyrosine-protein kinase Src (Homo sapiens, UniProt P12931); test: Inhibition of Src
Proto-oncogene tyrosine-protein kinase Src, sequence (P12931 2-536 limits assumed): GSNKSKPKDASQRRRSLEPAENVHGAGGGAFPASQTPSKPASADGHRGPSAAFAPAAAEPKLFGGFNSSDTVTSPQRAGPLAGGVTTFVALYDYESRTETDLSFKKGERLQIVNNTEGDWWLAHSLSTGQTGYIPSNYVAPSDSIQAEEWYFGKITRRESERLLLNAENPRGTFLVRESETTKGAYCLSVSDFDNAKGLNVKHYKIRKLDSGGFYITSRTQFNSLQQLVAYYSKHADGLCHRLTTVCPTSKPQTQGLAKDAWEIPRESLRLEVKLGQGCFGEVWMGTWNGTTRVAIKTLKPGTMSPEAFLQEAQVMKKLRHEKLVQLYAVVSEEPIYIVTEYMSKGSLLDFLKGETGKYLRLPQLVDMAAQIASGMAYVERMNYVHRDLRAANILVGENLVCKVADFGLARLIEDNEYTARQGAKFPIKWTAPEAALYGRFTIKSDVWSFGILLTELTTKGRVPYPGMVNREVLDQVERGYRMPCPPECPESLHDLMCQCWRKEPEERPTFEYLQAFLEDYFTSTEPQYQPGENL

[9] = target: Glycogen synthase kinase-3 beta (Homo sapiens, UniProt P49841)
Glycogen synthase kinase-3 beta, sequence (P49841 whole entry): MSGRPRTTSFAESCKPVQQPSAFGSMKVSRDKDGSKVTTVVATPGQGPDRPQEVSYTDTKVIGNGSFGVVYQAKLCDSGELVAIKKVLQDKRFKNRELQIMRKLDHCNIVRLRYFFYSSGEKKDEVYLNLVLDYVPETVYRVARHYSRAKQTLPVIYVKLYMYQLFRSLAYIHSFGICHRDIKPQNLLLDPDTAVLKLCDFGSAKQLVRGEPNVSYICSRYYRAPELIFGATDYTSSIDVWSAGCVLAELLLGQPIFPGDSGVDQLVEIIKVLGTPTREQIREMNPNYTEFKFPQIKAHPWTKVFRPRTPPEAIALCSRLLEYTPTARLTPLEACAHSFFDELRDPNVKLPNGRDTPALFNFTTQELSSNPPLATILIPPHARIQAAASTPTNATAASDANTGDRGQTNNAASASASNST

[10] = test system: COLO 205; test: Cytotoxicity against human COLO205 cells after 48 hrs by MTS assay; assay type: functional, cell-based; conditions: COLO 205, 48 h
[11] = test system: COLO 205; test: Induction of apoptosis in human COLO205 cells by TUNEL staining; assay type: functional, cell-based
[12] = test system: MCF7; test: Antitumor activity against human MCF7 cells xenograft model assessed as tumor growth inhibition at 300 mg/kg, po bid; assay type: functional; conditions: read-out: GI
[13] = test system: COLO 205; test: Induction of apoptosis in human COLO205 cells assessed as DNA fragmentation by ELISA; assay type: functional, cell-based
[14] = test system: COLO 205; test: Induction of apoptosis in human COLO205 cells by annexin V binding; assay type: functional, cell-based
[15] = target: T1, Aurora kinase B; test: Inhibition of Aurora-B by time dependent kinetic study

T1 sequence (Q96GD4 whole entry): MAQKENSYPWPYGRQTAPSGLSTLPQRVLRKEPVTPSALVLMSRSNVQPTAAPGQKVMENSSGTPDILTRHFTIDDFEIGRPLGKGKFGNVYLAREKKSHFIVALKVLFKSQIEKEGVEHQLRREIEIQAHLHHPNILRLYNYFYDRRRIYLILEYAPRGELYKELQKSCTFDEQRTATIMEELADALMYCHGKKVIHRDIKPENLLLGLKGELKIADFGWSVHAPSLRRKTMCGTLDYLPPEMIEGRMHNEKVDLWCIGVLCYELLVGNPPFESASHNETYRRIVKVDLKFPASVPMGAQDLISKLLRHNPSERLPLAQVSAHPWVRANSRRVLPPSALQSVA

Row | Ki [1] [nM] | IC50 [2] [nM] | Ki [4] [nM] | SMILES | further results
1 | 8 | – | 1.6 | CCC(=O)Nc1ccc(Sc2nc(Nc3cc(C)n[nH]3)cc(N3CCCCC3)n2)cc1 | –
2 | 59 | 1420 | 3.9 | CCC(=O)Nc1ccc(Sc2nc(Nc3cc(C)n[nH]3)cc(C3CC3)n2)cc1 | –
3 | – | 19 | – | Cc1cc(Nc2cc(N3CCN(C)CC3)nc(Sc3ccc(NC(=O)C4CC4)cc3)n2)n[nH]1 [TOZASERTIB] | Activity [2]: tde
4 | 23 | 730 | 2.4 | CCC(=O)Nc1ccc(Sc2nc(Nc3cc(C)[nH]n3)cc(N3CCC3)n2)cc1 | –
5 | 9.5 | – | < 1 | CCC(=O)Nc1ccc(Sc2nc(Nc3cc(C)n[nH]3)cc(N3CCN(C4CC4)CC3)n2)cc1 | solubility [3]: 12.8 µg/mL (≈ 26.7 µM)
6 | 25 | – | < 1 | CCC(=O)Nc1ccc(Sc2nc(Nc3cc(C)n[nH]3)cc(N3CCN(CC)CC3)n2)cc1 | solubility [3]: 114 µg/mL (≈ 245 µM)
7 | 145 | 870 | < 1 | CCC(=O)Nc1ccc(Sc2nc(Nc3cc(C)[nH]n3)cc(-c3ccccc3)n2)cc1 | –
8 | 57 | 830 | – | CCC(=O)Nc1ccc(Sc2nc(Nc3cc(C)[nH]n3)c3ccccc3n2)cc1 | –
9 | 20 | – | 1.6 | CCC(=O)Nc1ccc(Sc2nc(Nc3cc(C)[nH]n3)cc(N3CCN(C)CC3)n2)cc1 | solubility [3]: 63.4 µg/mL (≈ 140 µM); Activity [2]: tde
10 | 18 | – | 3.7 | CCC(=O)Nc1ccc(Sc2nc(Nc3cc(C)n[nH]3)cc(N3CCNCC3)n2)cc1 | solubility [3]: 296 µg/mL (≈ 675 µM)
11 | 11 | – | 1.3 | CCC(=O)Nc1ccc(Sc2nc(Nc3cc(C)n[nH]3)cc(N3CCN(C(C)(C)C)CC3)n2)cc1 | solubility [3]: 221 µg/mL (≈ 446 µM); half-life [6]: 8 h; Ki [15]: 0.8 nM
12 | 153 | 720 | 5.1 | CCC(=O)Nc1ccc(Sc2nc(C)cc(Nc3cc(C)n[nH]3)n2)cc1 | solubility [3]: 4.2 µg/mL (≈ 11.4 µM)
13 | 49 | 1000 | < 3 | CCC(=O)Nc1ccc(Sc2nc(Nc3cc(C)[nH]n3)cc(-c3ccncc3)n2)cc1 | –
14 | 115 | 2000 | 10 | CCC(=O)Nc1ccc(Sc2nc(Nc3cc(C)[nH]n3)cc(C(C)(C)C)n2)cc1 | solubility [3]: 11.2 µg/mL (≈ 27.3 µM)
15 | 52 | 470 | 3.9 | CCC(=O)Nc1ccc(Sc2nc(Nc3cc(C)[nH]n3)cc(-c3cccnc3)n2)cc1 | solubility [3]: < 1 µg/mL
16 | 14 | – | 1.7 | CCC(=O)Nc1ccc(Sc2nc(Nc3cc(C)n[nH]3)cc(N3CCOCC3)n2)cc1 | solubility [3]: 5.4 µg/mL (≈ 12.3 µM)

More lines, now with the values behind:

Row | SMILES | Ki [1] [nM] | IC50 [2] [nM] | Ki [4] [nM] | further results
17 | CC(=O)Nc1ccc(Sc2nc(Nc3cc[nH]n3)c3ccccc3n2)cc1 | > 1100 | 2200 | – | –
18 | Cc1cc(Nc2cc(N3CCN(C)CC3)nc(Sc3ccc(NC(=O)C4CC4)cc3)n2)[nH]n1 [TOZASERTIB] | – | – | – | solubility [3]: 6.8 µg/mL (≈ 14.6 µM)
19 | Cc1cc(Nc2nc(Sc3ccccc3)nc3ccccc23)n[nH]1 | 590 | – | – | –
20 | CC(=O)Nc1ccc(Sc2nc(Nc3cc(C)[nH]n3)c3ccccc3n2)cc1 | – | – | – | bioavailability [5]: 40%; half-life [6]: 1.5 h; Ki [7]: 11 nM
21 | Cc1cc(Nc2nc(Sc3cccc(Cl)c3)nc3ccccc23)n[nH]1 | 185 | – | – | –
22 | Cc1cc(Nc2nc(Sc3cccc(Cl)c3Cl)nc3ccccc23)n[nH]1 | 675 | – | – | –
23 | Cc1cc(Nc2nc(Sc3ccc(Cl)c(Cl)c3)nc3ccccc23)n[nH]1 | > 40 | – | – | Ki [8]: > 38 nM
24 | Cc1cc(Nc2nc(Sc3ccc(Cl)cc3Cl)nc3ccccc23)n[nH]1 | > 1100 | – | – | –
25 | Cc1cc(Nc2nc(Sc3ccc(NC(=O)OC(C)(C)C)cc3)nc3ccccc23)n[nH]1 | 250 | 2870 | – | Ki [8]: > 3000 nM; Ki [9]: > 4000 nM
26 | CCC(=O)Nc1ccc(Sc2nc(Nc3cc(C)[nH]n3)cc(N3CCN(C(C)(C)C)CC3)n2)cc1 | – | – | – | Activity [2]: tde
27 | COc1ccccc1Sc1nc(Nc2cc(C)[nH]n2)c2ccccc2n1 | 995 | – | – | Ki [8]: > 1000 nM
28 | Cc1cc(Nc2nc(Sc3ccc(NS(C)(=O)=O)cc3)nc3ccccc23)n[nH]1 | 230 | 780 | – | –
29 | CC(=O)Nc1ccc(Sc2nccc(Nc3cc(C)[nH]n3)n2)cc1 | 207 | 4050 | 86 | solubility [3]: 13.8 µg/mL (≈ 40.5 µM)
30 | COc1ccc(Sc2nc(Nc3cc(C)[nH]n3)c3ccccc3n2)cc1OC | 120 | – | – | –
31 | Cc1cc(Nc2nc(Sc3ccc(NC(=O)C4CC4)cc3)nc3ccccc23)n[nH]1 | 51 | 910 | – | –
32 | CC(=O)Nc1ccc(Sc2nc(C)cc(Nc3cc(C)n[nH]3)n2)cc1 | 220 | 2000 | 18 | solubility [3]: < 1 µg/mL
33 | Cc1cc(Nc2nc(-c3ccncc3)nc3ccccc23)n[nH]1 | – | – | 81 | Ki [8]: 181 nM; Ki [9]: 73 nM
34 | Cc1cc(Nc2nc(Sc3ccccc3Cl)nc3ccccc23)n[nH]1 | 445 | – | – | –
35 | CC(=O)N(C)c1ccc(Sc2nc(Nc3cc(C)[nH]n3)c3ccccc3n2)cc1 | 105 | 5770 | < 1 | Ki [8]: 796 nM
36 | Cc1cc(Nc2nc(Sc3c(Cl)cccc3Cl)nc3ccccc23)n[nH]1 | > 1100 | – | – | –
37 | CC(=O)Nc1ccc(Sc2nc(Nc3cc(C)n[nH]3)c3ccccc3n2)cc1 | – | – | – | IC50 [10]: 8500 nM; Activity [11]: Active; inhibition in vivo at 300 mg/kg [12]: 50%; Activity [13]: Active; Activity [14]: Active
38 | CC(=O)Nc1ccc(Sc2nc(Nc3cc(C)[nH]n3)cc(-c3ccccc3)n2)cc1 | 83 | – | 2.4 | –
39 | CCC(=O)Nc1ccc(Sc2nc(Nc3cc(C)[nH]n3)cc(N3CCNCC3)n2)cc1 | – | – | – | Activity [2]: tde
40 | Cc1cc(Nc2nc(Sc3ccc(Cl)cc3)nc3ccccc23)n[nH]1 | > 1100 | – | – | –
41 | CCC(=O)Nc1ccc(Sc2nc(Nc3cc(C)[nH]n3)cc(N3CCN(CC)CC3)n2)cc1 | – | – | – | Activity [2]: tde
42 | Cc1cc(Nc2nc(Sc3ccc4ccccc4c3)nc3ccccc23)n[nH]1 | > 40 | > 12000 | – | Ki [8]: > 500 nM; Ki [9]: > 150 nM
43 | CC(=O)Nc1ccc(Sc2nc(Nc3cc(C4CC4)[nH]n3)c3ccccc3n2)cc1 | 15 | 210 | – | –
44 | CCC(=O)Nc1ccc(Sc2nc(Nc3cc(C)[nH]n3)cc(N3CCN(C4CC4)CC3)n2)cc1 | – | – | – | Activity [2]: tde
45 | COc1ccc(Sc2nc(Nc3cc(C)[nH]n3)c3ccccc3n2)cc1 | 575 | – | – | –
